Experimental data published in patent publication US7485750B2, “Hydroxamic acid derivatives and the preparation method thereof” (Amorepacific Corporation, priority 2005, dated 2009).

Experiments:
Human fibroblasts = experiment: Collagen biosynthesis: procollagen type (I) ELISA in human fibroblasts; type: cell-based; details: 10^-4 M in serum-free medium, 24 hours, relative value, control group = 100
Protocol: Human fibroblasts were seeded into 24-well plates at 1×10^5 cells per well and then cultured to 90% of growth. The fibroblastes were then cultured in serum-free DMEM for 24 hours and treated with 10^−4 M of the hydroxamic acid derivatives of Examples 1-24, tocoperol and EGCG, in serum-free medium, and then incubated in a CO2 incubator for 24 hours.
For each supernatant, procollagen production was measured with procollagen type (I) ELISA kit. The results are shown in Table 2, in which collagen biosynthesis was evaluated as a relative value, in consideration that the value of the control group with no material treated is 100.

mice = experiment: Contraction of skin pores in mice after topical application; type: in vivo; details: 0.5 ml of 1% solution in 1,3-butylene glycol:ethanol=7:3 applied for 1 day, back biopsied 24 hours later, control group 65
Protocol: The compounds of Examples 1-24 were dissolved in solvent (1,3-butylene glycol:ethanol=7:3) to give 1% solution of test samples. To forty-six (46) mice, 0.5 ml of the test sample solution was applied for 1 day, 24 hours later, their back part was biopsied. The epidermis was separated, then soaked in 0.5% acetic acid, then fixed in 10% formalin, and cut vertically by […]. After dying with hematoxylin and eosin, the size of skin pore was measured using Mechanical eyepiece micrometer.

[1] = test system: Human keratinocyte (HaCaT) cell line; experiment: Antioxidative effect: lipid peroxidation assay (MDA, 4-HNE) in t-BHP-treated HaCaT cells; type: cell-based; design: unit not given here; details: control without treatment = 100
Protocol: This example illustrates the antioxidative effect of the hydroxamic acid derivatives obtained in Examples 1 to 24, in comparison with tocoperol and EGCG (EpiGalloCatechin Gallate). Human keratinocyte (HaCaT) cell line was divided into 1.0×10^6 per 60 mm dish, and was cultured for 1 day at 37° C., 5% CO2, using DMEM (FBS 10%) medium containing penicillin/streptomycin, and then was treated with 10^−4 mol % of hydroxamic acid derivatives. The same treatment was performed with tocoperol and EGCG, as positive controls, of the same concentration. The next day, HaCaT cells were treated with 4 mM of BHP (t-butyl hydroperoixe), and were cultured for 4 hours at 37° C., 5% CO2, and the cells were obtained. Lysis of the cells was performed on the cells by way of repeating the freeze/thawing process. The following experiment was performed according to the method presented in the assay kit.
Cabiochem Lipid peroxidation assay kit (Cat. No. 437634) was used as reagent in the present invention, and lipid peroxidation was measured using the principle that peroxidation products of ester which relate to long chain unsaturated fatty acid, such as malondialdehyde (MDA), and 4-hydroxyalkenal, i.e., 4-hydroxy-2(E)-nonenal (4-HNE), react with the reagent to form a stable compound at 586 nm.

[2] = HaCaT cells pretreated with 10^-4 mol % test material, next day 4 mM t-BHP for 4 hours, lipid peroxidation at 586 nm

## COc1ccc(C(=O)Nc2ccc(C(=O)N(C)O)cc2)cc1OC [Example 7, [4-((3,4-dimethoxyphenyl)carbonylamino)phenyl]-N-hydroxy-N-methyl carboxyamide]
Human fibroblasts
  Collagen biosynthesis (%): 111%
mice
  Size of skin pore: 55 µm
[1]; [2]
  MDA, HNE: 220

## CCCOc1ccc(C(=O)Nc2ccc(CC(=O)NO)cc2)cc1OCCC [Example 16, N-(4-((hydroxycarbamoyl)methyl)phenyl)-3,4-dipropoxy benzamide]
Human fibroblasts
  Collagen biosynthesis (%): 131%
mice
  Size of skin pore: 52 µm
[1]; [2]
  MDA, HNE: 199

## CCCCOc1ccc(C(=O)Nc2ccc(CC(=O)N(C)O)cc2)cc1OCCCC [Example 23]
Human fibroblasts
  Collagen biosynthesis (%): 123%
mice
  Size of skin pore: 51 µm
[1]; [2]
  MDA, HNE: 188

## CC(C)(C)OO [t-BHP, t-butyl hydroperoixe, reference compound]
[1]; HaCaT cells treated with 4 mM t-BHP alone for 4 hours
  MDA, HNE: 320

## CCCOc1ccc(C(=O)Nc2ccc(C(=O)NO)cc2)cc1OCCC [Example 4, N-[4-(N-hydroxycarbamoyl)phenyl][3,4-dipropoxyphenyl]carboxyamide]
Human fibroblasts
  Collagen biosynthesis (%): 111%
mice
  Size of skin pore: 52 µm
[1]; [2]
  MDA, HNE: 189

## COc1ccc(C(=O)Nc2ccc(CC(=O)NO)cc2)cc1OC [Example 13, N-(4-((hydroxycarbamoyl)methyl)phenyl)-3,4-dimethoxy benzamide]
Human fibroblasts
  Collagen biosynthesis (%): 111%
mice
  Size of skin pore: 55 µm
[1]; [2]
  MDA, HNE: 150

## COc1ccc(C(=O)Nc2ccc(CC(=O)N(C)O)cc2)cc1OC [Example 19]
Human fibroblasts
  Collagen biosynthesis (%): 142%
mice
  Size of skin pore: 54 µm
[1]; [2]
  MDA, HNE: 212

## O=C(O[C@@H]1Cc2c(O)cc(O)cc2O[C@@H]1c1cc(O)c(O)c(O)c1)c1cc(O)c(O)c(O)c1 [EGCG, EpiGalloCatechin Gallate, reference compound]
Human fibroblasts
  Collagen biosynthesis (%): 120%
mice
  Size of skin pore: 60 µm
[1]; [2]
  MDA, HNE: 230

## CC(C)(C)Oc1ccc(C(=O)Nc2ccc(C(=O)NO)cc2)cc1OC(C)(C)C [Example 6, N-[4-(N-hydroxycarbamoyl)phenyl][3,4-di-tert-butoxyphenyl]carboxyamide]
Human fibroblasts
  Collagen biosynthesis (%): 135%
mice
  Size of skin pore: 54 µm
[1]; [2]
  MDA, HNE: 231

## CC(C)Oc1ccc(C(=O)Nc2ccc(CC(=O)NO)cc2)cc1OC(C)C [Example 15, N-(4-((hydroxycarbamoyl)methyl)phenyl)-3,4-diisopropoxy benzamide]
Human fibroblasts
  Collagen biosynthesis (%): 134%
mice
  Size of skin pore: 51 µm
[1]; [2]
  MDA, HNE: 213

## CCOc1ccc(C(=O)Nc2ccc(C(=O)N(C)O)cc2)cc1OCC [Example 8, [4-((3,4-diethoxyphenyl)carbonylamino)phenyl]-N-hydroxy-N-methyl carboxyamide]
Human fibroblasts
  Collagen biosynthesis (%): 112%
mice
  Size of skin pore: 50 µm
[1]; [2]
  MDA, HNE: 190

## CC(C)Oc1ccc(C(=O)Nc2ccc(CC(=O)N(C)O)cc2)cc1OC(C)C [Example 21]
Human fibroblasts
  Collagen biosynthesis (%): 121%
mice
  Size of skin pore: 55 µm
[1]; [2]
  MDA, HNE: 190

## CCCOc1ccc(C(=O)Nc2ccc(CC(=O)N(C)O)cc2)cc1OCCC [Example 22]
Human fibroblasts
  Collagen biosynthesis (%): 122%
mice
  Size of skin pore: 52 µm
[1]; [2]
  MDA, HNE: 188

## CCOc1ccc(C(=O)Nc2ccc(CC(=O)NO)cc2)cc1OCC [Example 14, N-(4-((hydroxycarbamyl)methyl)phenyl)-3,4-diethoxy benzamide]
Human fibroblasts
  Collagen biosynthesis (%): 121%
mice
  Size of skin pore: 50 µm
[1]; [2]
  MDA, HNE: 220

## CN(O)C(=O)c1ccc(NC(=O)c2ccc(OC(C)(C)C)c(OC(C)(C)C)c2)cc1 [Example 12, [4-((3,4-di-tert-butoxyphenyl)carbonylamino)phenyl]-N-hydroxy-N-methyl carboxyamide]
Human fibroblasts
  Collagen biosynthesis (%): 123%
mice
  Size of skin pore: 54 µm
[1]; [2]
  MDA, HNE: 176

## CC(C)Oc1ccc(C(=O)Nc2ccc(C(=O)N(C)O)cc2)cc1OC(C)C [Example 9, [4-((3,4-diisopropoxyphenyl)carbonylamino)phenyl]-N-hydroxy-N-methyl carboxyamide]
Human fibroblasts
  Collagen biosynthesis (%): 123%
mice
  Size of skin pore: 51 µm
[1]; [2]
  MDA, HNE: 187

## Cc1c(C)c2c(c(C)c1O)CC[C@@](C)(CCC[C@H](C)CCC[C@H](C)CCCC(C)C)O2 [Tocoperol, tocoperol, reference compound]
Human fibroblasts
  Collagen biosynthesis (%): 113%
mice
  Size of skin pore: 64 µm
[1]; [2]
  MDA, HNE: 250

## CCOc1ccc(C(=O)Nc2ccc(CC(=O)N(C)O)cc2)cc1OCC [Example 20]
Human fibroblasts
  Collagen biosynthesis (%): 123%
mice
  Size of skin pore: 51 µm
[1]; [2]
  MDA, HNE: 196

## COc1ccc(C(=O)Nc2ccc(C(=O)NO)cc2)cc1OC [Example 1, N-[4-(N-hydroxycarbamoyl)phenyl][3,4-dimethoxyphenyl]carboxyamide]
Human fibroblasts
  Collagen biosynthesis (%): 123%
mice
  Size of skin pore: 56 µm
[1]; [2]
  MDA, HNE: 190

## CCOc1ccc(C(=O)Nc2ccc(C(=O)NO)cc2)cc1OCC [Example 2, N-[4-(N-hydroxycarbamoyl)phenyl][3,4-diethoxyphenyl]carboxyamide]
Human fibroblasts
  Collagen biosynthesis (%): 131%
mice
  Size of skin pore: 50 µm
[1]; [2]
  MDA, HNE: 200

## CC(C)(C)Oc1ccc(C(=O)Nc2ccc(CC(=O)NO)cc2)cc1OC(C)(C)C [Example 18, N-(4-((hydroxycarbamoyl)methyl)phenyl)-3,4-di-tert-butoxy benzamide]
Human fibroblasts
  Collagen biosynthesis (%): 122%
mice
  Size of skin pore: 57 µm
[1]; [2]
  MDA, HNE: 232

## CCCCOc1ccc(C(=O)Nc2ccc(C(=O)NO)cc2)cc1OCCCC [Example 5, N-[4-(N-hydroxycarbamoyl)phenyl][3,4-dibutoxyphenyl]carboxyamide]
Human fibroblasts
  Collagen biosynthesis (%): 121%
mice
  Size of skin pore: 53 µm
[1]; [2]
  MDA, HNE: 211

## CN(O)C(=O)Cc1ccc(NC(=O)c2ccc(OC(C)(C)C)c(OC(C)(C)C)c2)cc1 [Example 24]
Human fibroblasts
  Collagen biosynthesis (%): 131%
mice
  Size of skin pore: 50 µm
[1]; [2]
  MDA, HNE: 197

## CCCOc1ccc(C(=O)Nc2ccc(C(=O)N(C)O)cc2)cc1OCCC [Example 10, [4-((3,4-dipropoxyphenyl)carbonylamino)phenyl]-N-hydroxy-N-methyl carboxyamide]
Human fibroblasts
  Collagen biosynthesis (%): 126%
mice
  Size of skin pore: 52 µm
[1]; [2]
  MDA, HNE: 140

## CCCCOc1ccc(C(=O)Nc2ccc(CC(=O)NO)cc2)cc1OCCCC [Example 17, N-(4-((hydroxycarbamoyl)methyl)phenyl)-3,4-dibutoxy benzamide]
Human fibroblasts
  Collagen biosynthesis (%): 123%
mice
  Size of skin pore: 56 µm
[1]; [2]
  MDA, HNE: 200

## CC(C)Oc1ccc(C(=O)Nc2ccc(C(=O)NO)cc2)cc1OC(C)C [Example 3, N-[4-(N-hydroxycarbamoyl)phenyl][3,4-diisopropoxyphenyl]carboxyamide]
Human fibroblasts
  Collagen biosynthesis (%): 122%
mice
  Size of skin pore: 54 µm
[1]; [2]
  MDA, HNE: 211

## CCCCOc1ccc(C(=O)Nc2ccc(C(=O)N(C)O)cc2)cc1OCCCC [Example 11, [4-((3,4-dibutoxyphenyl)carbonylamino)phenyl]-N-hydroxy-N-methylcarboxyamide]
Human fibroblasts
  Collagen biosynthesis (%): 121%
mice
  Size of skin pore: 56 µm
[1]; [2]
  MDA, HNE: 198
